Laboratory results taken from paper PMC8509773, “3-Pyridinylidene Derivatives of Chemically Modified Lupane and Ursane Triterpenes as Promising Anticancer Agents by Targeting Apoptosis” (International Journal of Molecular Sciences, 2021).

Assays:
Experiment in all cases: NCI-60 SRB screening (one-dose and five-dose)
Type in all cases: cell-based, human
[1] = tested on: 786-0; conditions: 48 h
Protocol: (§1) The compounds were added at a single concentration and the cell cultures were incubated for 48 h. The end point determinations were made with a protein binding dye, sulforhodamine B (SRB). […] The percentage of growth was evaluated spectrophotometrically versus controls not treated with test agents after 48-h exposure and using SRB protein assay to estimate cell viability or growth. […] Furthermore, mean graph midpoints (MG_MID) were calculated for each of the parameters, giving an average activity parameter over all cell lines for the tested compound. For the MG_MID calculation, insensitive cell lines were included with the highest concentration tested.

[2] = tested on: A498; conditions: 48 h
Protocol: as §1

[3] = tested on: BT-549; conditions: Homo sapiens; BT-549, five dose 0.01–100 μM, 48 h
Protocol: as §1

[4] = tested on: CAKI-1; conditions: 48 h
Protocol: as §1

[5] = tested on: CCRF-CEM; conditions: 48 h
Protocol: as §1

[6] = tested on: COLO 205; conditions: 48 h
Protocol: as §1

[7] = tested on: DU-145; conditions: 48 h
Protocol: as §1

[8] = tested on: EKVX; conditions: 48 h
Protocol: as §1

[9] = tested on: HCC-2998; conditions: 48 h
Protocol: as §1

[10] = tested on: HL-60(TB); conditions: 48 h
Protocol: as §1

[11] = tested on: HOP-62; conditions: 48 h
Protocol: as §1

[12] = tested on: HOP-92; conditions: 48 h
Protocol: as §1

[13] = tested on: HT29; conditions: 48 h
Protocol: as §1

[14] = tested on: IGROV1; conditions: 48 h
Protocol: as §1

[15] = tested on: K-562; conditions: 48 h
Protocol: as §1

[16] = tested on: KM-12; conditions: 48 h
Protocol: as §1

[17] = tested on: LOX IMVI; conditions: 48 h
Protocol: as §1

[18] = tested on: MCF7; conditions: 48 h
Protocol: as §1

[19] = tested on: MDA-MB-231/ATCC; conditions: 48 h
Protocol: as §1

[20] = tested on: MDA-MB-468; conditions: 48 h
Protocol: as §1

[21] = tested on: MOLT-4; conditions: 48 h
Protocol: as §1

[22] = tested on: NCI-H226; conditions: 48 h
Protocol: as §1

[23] = tested on: NCI-H23; conditions: 48 h
Protocol: as §1

[24] = tested on: NCI-H460; conditions: 48 h
Protocol: as §1

[25] = tested on: NCI/ADR-RES; conditions: 48 h
Protocol: as §1

[26] = tested on: OVCAR-4; conditions: 48 h
Protocol: as §1

[27] = tested on: OVCAR-5; conditions: 48 h
Protocol: as §1

[28] = tested on: PC-3; conditions: 48 h
Protocol: as §1

[29] = tested on: RXF 393; conditions: 48 h
Protocol: as §1

[30] = tested on: SF-268; conditions: 48 h
Protocol: as §1

[31] = tested on: SF-539; conditions: 48 h
Protocol: as §1

[32] = tested on: SK-MEL-2; conditions: 48 h
Protocol: as §1

[33] = tested on: SK-MEL-5; conditions: 48 h
Protocol: as §1

[34] = tested on: SK-OV-3; conditions: 48 h
Protocol: as §1

[35] = tested on: SN12C; conditions: 48 h
Protocol: as §1

[36] = tested on: SR; conditions: 48 h
Protocol: as §1

[37] = tested on: SW-620; conditions: 48 h
Protocol: as §1

[38] = tested on: UACC-62; conditions: 48 h
Protocol: as §1

[39] = tested on: NCI-H322M; conditions: 10 μM, 48 h
Protocol: as §1

[40] = tested on: TK-10; conditions: TK-10, 10 μM, 48 h
Protocol: as §1

[41] = Homo sapiens, five dose 0.01–100 μM

Q: How did the GI50 ([1]; Homo sapiens, 786-0, five dose 0.01–100 μM) turn out when `COc1cccc2c1C(=O)c1c(O)c3c(c(O)c1C2=O)C[C@@](O)(C(=O)CO)C[C@@H]3O[C@H]1C[C@H](N)[C@H](O)[C@H](C)O1` [Doxorubicin, reference compound] was run?
A: 0.13 µM

Q: And the GI50 ([2]; Homo sapiens, A498, five dose 0.01–100 μM)?
A: 0.1 µM

Q: What about the GI50 [3] of the same compound?
A: 0.23 µM

Q: And the GI50 ([4]; Homo sapiens, CAKI-1, five dose 0.01–100 μM)?
A: 0.95 µM

Q: And the GI50 [5, 41]?
A: 0.08 µM

Q: What about the GI50 ([6]; Homo sapiens, COLO 205, five dose 0.01–100 μM) of the same compound?
A: 0.18 µM

Q: And the GI50 ([7]; Homo sapiens, DU-145, five dose 0.01–100 μM)?
A: 0.11 µM

Q: And the GI50 [8, 41]?
A: 0.41 µM

Q: And the GI50 ([9]; Homo sapiens, HCC-2998, five dose 0.01–100 μM)?
A: 0.26 µM

Q: And the GI50 [10, 41]?
A: 0.12 µM

Q: And the GI50 ([11]; Homo sapiens, HOP-62, five dose 0.01–100 μM)?
A: 0.07 µM

Q: What about the GI50 ([12]; Homo sapiens, HOP-92, five dose 0.01–100 μM) of the same compound?
A: 0.1 µM

Q: And the GI50 ([13]; Homo sapiens, HT-29, HT29, five dose 0.01–100 μM)?
A: 0.12 µM

Q: And the GI50 ([14]; Homo sapiens, IGROV-1, IGROV1, five dose 0.01–100 μM)?
A: 0.17 µM

Q: And the GI50 ([15]; Homo sapiens, K562, K-562, five dose 0.01–100 μM)?
A: 0.19 µM

Q: And the GI50 ([16]; Homo sapiens, KM12, KM-12, five dose 0.01–100 μM)?
A: 0.27 µM

Q: And the GI50 [17, 41]?
A: 0.07 µM

Q: What about the GI50 ([18]; Homo sapiens, MCF7, five dose 0.01–100 μM) of the same compound?
A: 0.03 µM

Q: What about the GI50 [19, 41] of the same compound?
A: 0.51 µM

Q: And the GI50 ([20]; Homo sapiens, MDA-MB-468, five dose 0.01–100 μM)?
A: 0.05 µM

Q: And the GI50 ([21]; Homo sapiens, MOLT-4, five dose 0.01–100 μM)?
A: 0.03 µM

Q: What about the GI50 ([22]; Homo sapiens, NCI-H226, five dose 0.01–100 μM) of the same compound?
A: 0.05 µM

Q: And the GI50 ([23]; Homo sapiens, NCI-H23, five dose 0.01–100 μM)?
A: 0.15 µM

Q: And the GI50 ([24]; Homo sapiens, NCI-H460, five dose 0.01–100 μM)?
A: 0.02 µM

Q: What about the GI50 [25, 41] of the same compound?
A: 7.16 µM

Q: And the GI50 ([26]; Homo sapiens, OVCAR-4, five dose 0.01–100 μM)?
A: 0.37 µM

Q: And the GI50 ([27]; Homo sapiens, OVCAR-5, five dose 0.01–100 μM)?
A: 0.41 µM

Q: What about the GI50 ([28]; Homo sapiens, PC-3, five dose 0.01–100 μM) of the same compound?
A: 0.32 µM

Q: And the GI50 ([29]; Homo sapiens, RXF 393, five dose 0.01–100 μM)?
A: 0.1 µM

Q: What about the GI50 ([30]; Homo sapiens, SF-268, five dose 0.01–100 μM) of the same compound?
A: 0.1 µM

Q: What about the GI50 ([31]; Homo sapiens, SF-539, five dose 0.01–100 μM) of the same compound?
A: 0.12 µM

Q: What about the GI50 ([32]; Homo sapiens, SK-MEL-2, five dose 0.01–100 μM) of the same compound?
A: 0.17 µM

Q: And the GI50 ([33]; Homo sapiens, SK-MEL-5, five dose 0.01–100 μM)?
A: 0.08 µM

Q: And the GI50 ([34]; Homo sapiens, SK-OV-3, five dose 0.01–100 μM)?
A: 0.22 µM

Q: What about the GI50 [35, 41] of the same compound?
A: 0.07 µM

Q: What about the GI50 [36, 41] of the same compound?
A: 0.03 µM

Q: And the GI50 ([37]; Homo sapiens, SW-620, five dose 0.01–100 μM)?
A: 0.09 µM

Q: What about the GI50 ([38]; Homo sapiens, UACC-62, five dose 0.01–100 μM) of the same compound?
A: 0.12 µM

Q: What does the source list for `CC(=O)[C@H]1C[C@]23CC[C@]4(C)[C@H](CC[C@@H]5[C@@]6(C)CCC(=O)C(C)(C)[C@@H]6CC[C@]54C)[C@H]2[C@H](C)[C@@]1(C)OC3` [Compound 2, 3-oxo-21β-acetyl-20β,28-epoxy-18α,19βH-ursane]?
A: Growth Percent ([1]; 786-0, 10 μM): 89.64%; Growth Percent ([2]; A498, 10 μM): 67.96%; Growth Percent ([4]; CAKI-1, 10 μM): 66.38%; Growth Percent ([5]; 10 μM): 104.98%; Growth Percent ([6]; COLO 205, 10 μM): 111.81%; Growth Percent ([7]; DU-145, 10 μM): 98.96%; Growth Percent ([8]; 10 μM): 71.73%; Growth Percent ([9]; HCC-2998, 10 μM): 109.84%; Growth Percent ([10]; 10 μM): 133.26%; Growth Percent ([11]; HOP-62, 10 μM): 80.72%; Growth Percent ([12]; HOP-92, 10 μM): 95.88%; Growth Percent ([13]; HT29, 10 μM): 108.96%; Growth Percent ([14]; IGROV1, 10 μM): 88.93%; Growth Percent ([15]; K-562, 10 μM): 103.93%; Growth Percent ([16]; KM-12, 10 μM): 102.54%; Growth Percent ([17]; 10 μM): 94.48%; Growth Percent ([18]; MCF7, 10 μM): 90.80%; Growth Percent ([19]; 10 μM): 85.22%; Growth Percent ([20]; MDA-MB-468, 10 μM): 108.53%; Growth Percent ([21]; MOLT-4, 10 μM): 100.88%; Growth Percent ([22]; NCI-H226, 10 μM): 95.16%; Growth Percent ([23]; NCI-H23, 10 μM): 90.60%; Growth Percent [39]: 106.71%; Growth Percent ([24]; NCI-H460, 10 μM): 94.87%; Growth Percent ([25]; 10 μM): 102.89%; Growth Percent ([26]; OVCAR-4, 10 μM): 85.13%; Growth Percent ([27]; OVCAR-5, 10 μM): 96.55%; Growth Percent ([28]; PC-3, 10 μM): 87.23%; Growth Percent ([29]; RXF 393, 10 μM): 76.40%; Growth Percent ([30]; SF-268, 10 μM): 90.95%; Growth Percent ([31]; SF-539, 10 μM): 95.15%; Growth Percent ([32]; SK-MEL-2, 10 μM): 105.22%; Growth Percent ([33]; SK-MEL-5, 10 μM): 100.12%; Growth Percent ([34]; SK-OV-3, 10 μM): 118.18%; Growth Percent ([35]; 10 μM): 87.69%; Growth Percent ([36]; 10 μM): 92.32%; Growth Percent ([37]; SW-620, 10 μM): 95.81%; Growth Percent [40]: 76.40%; Growth Percent ([38]; UACC-62, 10 μM): 85.81%
